Test results from the NIST ThermoML archive (doi:10.1016/j.fluid.2017.01.019).
Numbers after ± are expanded uncertainties.

Experiment: xn = mol fraction of the nth substance listed
Details: 100 kPa, Liquid; for speed of sound: Frequency=3 MHz, Sing-around technique in a fixed-path interferometer; for viscosity: Falling or rolling sphere viscometry; for mass density: Vibrating tube method

CCOS(=O)(=O)[O-].CCn1cc[n+](C)c1 [1-ethyl-3-methylimidazolium ethyl sulfate] + CO
Details	mass density [kg/m3]	speed of sound [m/s]	viscosity [mPa·s]
293.15 K, x1 = 0.1067	–	1292.5 ± 3.4	–
293.15 K, x1 = 0.1996	–	1399.1 ± 2.8	–
293.15 K, x1 = 0.2919	–	1473.1 ± 2.7	–
293.15 K, x1 = 0.4021	–	1533.8 ± 2.9	–
293.15 K, x1 = 0.4918	–	1569.6 ± 3.2	–
293.15 K, x1 = 0.609	–	1606.4 ± 3.6	–
293.15 K, x1 = 0.7095	–	1632.8 ± 4	–
293.15 K, x1 = 0.8014	–	1652.9 ± 4.3	–
293.15 K, x1 = 0.904	–	1667.9 ± 4.7	–
293.15 K, x1 = 1	–	1682.3 ± 5.1	–
298.15 K, x1 = 0.1067	961.555 ± 2.6	–	1.45 ± 0.15
298.15 K, x1 = 0.1996	1042.5 ± 1.6	–	3.84 ± 0.16
298.15 K, x1 = 0.2919	1095.83 ± 1.5	–	4.57 ± 0.17
298.15 K, x1 = 0.4021	1138.91 ± 2	–	7.83 ± 0.21
298.15 K, x1 = 0.4918	1164.2 ± 2.6	–	12.99 ± 0.29
298.15 K, x1 = 0.609	1188.99 ± 3.6	–	19.97 ± 0.44
298.15 K, x1 = 0.7095	1204.69 ± 4.6	–	31.61 ± 0.72
298.15 K, x1 = 0.8014	1216.59 ± 5.6	–	45.92 ± 1.1
298.15 K, x1 = 0.904	1227.45 ± 7	–	65.82 ± 1.7
298.15 K, x1 = 1	1236.33 ± 8.3	–	96.21 ± 3.2
303.15 K, x1 = 0.1067	957.326 ± 2.6	1278.1 ± 3.4	1.35 ± 0.15
303.15 K, x1 = 0.1996	1038.4 ± 1.6	1386.3 ± 2.8	3.29 ± 0.16
303.15 K, x1 = 0.2919	1092.01 ± 1.5	1459.8 ± 2.7	4.15 ± 0.16
303.15 K, x1 = 0.4021	1135.31 ± 2	1522.6 ± 2.9	7.09 ± 0.2
303.15 K, x1 = 0.4918	1160.82 ± 2.6	1556.9 ± 3.2	11.38 ± 0.26
303.15 K, x1 = 0.609	1185.52 ± 3.6	1592.1 ± 3.6	17.26 ± 0.38
303.15 K, x1 = 0.7095	1201.31 ± 4.6	1620.4 ± 4	26.48 ± 0.6
303.15 K, x1 = 0.8014	1213.11 ± 5.6	1639.1 ± 4.3	37.65 ± 0.89
303.15 K, x1 = 0.904	1224.02 ± 6.9	1655.7 ± 4.7	53.03 ± 1.3
303.15 K, x1 = 1	1232.93 ± 8.3	1670 ± 5.1	75.89 ± 2.2
308.15 K, x1 = 0.1067	952.925 ± 2.6	1263.8 ± 3.5	1.26 ± 0.15
308.15 K, x1 = 0.1996	1034.33 ± 1.6	1372.7 ± 2.8	2.8 ± 0.16
308.15 K, x1 = 0.2919	1088.21 ± 1.5	1446.5 ± 2.7	3.78 ± 0.16
308.15 K, x1 = 0.4021	1131.6 ± 2	1509.8 ± 2.9	6.42 ± 0.19
308.15 K, x1 = 0.4918	1157.42 ± 2.6	1544.4 ± 3.2	10.02 ± 0.24
308.15 K, x1 = 0.609	1182.08 ± 3.5	1579.7 ± 3.6	15.14 ± 0.34
308.15 K, x1 = 0.7095	1198 ± 4.5	1608.1 ± 4	22.48 ± 0.51
308.15 K, x1 = 0.8014	1209.7 ± 5.6	1627 ± 4.3	31.44 ± 0.75
308.15 K, x1 = 0.904	1220.61 ± 6.9	1643.6 ± 4.7	43.71 ± 1.1
308.15 K, x1 = 1	1229.57 ± 8.2	1657.9 ± 5.1	60.73 ± 1.6
313.15 K, x1 = 0.1067	948.697 ± 2.6	1249.6 ± 3.5	1.17 ± 0.15
313.15 K, x1 = 0.1996	1030.41 ± 1.6	1359.3 ± 2.8	2.47 ± 0.15
313.15 K, x1 = 0.2919	1084.41 ± 1.5	1433.5 ± 2.7	3.48 ± 0.16
313.15 K, x1 = 0.4021	1127.88 ± 2	1497.1 ± 2.9	5.85 ± 0.18
313.15 K, x1 = 0.4918	1153.83 ± 2.5	1531.8 ± 3.2	8.91 ± 0.22
313.15 K, x1 = 0.609	1178.56 ± 3.5	1567.3 ± 3.6	13.32 ± 0.3
313.15 K, x1 = 0.7095	1194.76 ± 4.5	1596 ± 4	19.31 ± 0.44
313.15 K, x1 = 0.8014	1206.29 ± 5.5	1615 ± 4.3	26.51 ± 0.63
313.15 K, x1 = 0.904	1217.22 ± 6.8	1631.6 ± 4.7	36.28 ± 0.92
313.15 K, x1 = 1	1226.21 ± 8.2	1645.9 ± 5.1	49.38 ± 1.3
318.15 K, x1 = 0.1067	944.458 ± 2.7	1235.4 ± 3.5	1.09 ± 0.15
318.15 K, x1 = 0.1996	1026.64 ± 1.6	1345.8 ± 2.8	2.23 ± 0.15
318.15 K, x1 = 0.2919	1080.74 ± 1.5	1420.5 ± 2.7	3.21 ± 0.16
318.15 K, x1 = 0.4021	1124.28 ± 2	1484.5 ± 2.9	5.34 ± 0.18
318.15 K, x1 = 0.4918	1150.3 ± 2.5	1519.3 ± 3.2	7.96 ± 0.21
318.15 K, x1 = 0.609	1175.06 ± 3.5	1555 ± 3.6	11.78 ± 0.28
318.15 K, x1 = 0.7095	1191.48 ± 4.5	1584 ± 4	16.79 ± 0.39
318.15 K, x1 = 0.8014	1202.9 ± 5.5	1603.1 ± 4.3	22.62 ± 0.54
318.15 K, x1 = 0.904	1213.85 ± 6.8	1619.7 ± 4.7	30.46 ± 0.77
318.15 K, x1 = 1	1222.87 ± 8.1	1634.1 ± 5.1	40.93 ± 1.1
323.15 K, x1 = 0.1067	940.54 ± 2.7	1221.4 ± 3.5	1.02 ± 0.15
323.15 K, x1 = 0.1996	1022.72 ± 1.6	1332.3 ± 2.8	1.95 ± 0.15
323.15 K, x1 = 0.2919	1077.09 ± 1.5	1407.6 ± 2.7	2.96 ± 0.16
323.15 K, x1 = 0.4021	1120.78 ± 2	1471.9 ± 2.9	4.85 ± 0.17
323.15 K, x1 = 0.4918	1146.92 ± 2.5	1506.8 ± 3.2	7.08 ± 0.2
323.15 K, x1 = 0.609	1171.65 ± 3.5	1542.8 ± 3.6	10.54 ± 0.26
323.15 K, x1 = 0.7095	1188.29 ± 4.5	1572.1 ± 4	14.68 ± 0.35
323.15 K, x1 = 0.8014	1199.51 ± 5.5	1591.3 ± 4.3	19.5 ± 0.47
323.15 K, x1 = 0.904	1210.5 ± 6.8	1607.9 ± 4.7	25.98 ± 0.66
323.15 K, x1 = 1	1219.54 ± 8.1	1622.3 ± 5.1	33.82 ± 0.89
